Measured values taken from patent US10683273B2, “Compounds as DNA probes, methods and applications thereof” (JAWAHARLAL NEHRU CENTRE FOR ADVANCED SCIENTIFIC RESEARCH, priority 2015, dated 2020).
Read-outs that look alike come from different tables or passages of the source.

Experiments:
[1] = test system: (D1)mix; assay: Binding constant from fluorescence titration; details: non-linear single-binding mode curve fitting
Procedure: (§1) To determine the binding stoichiometry of QCy-DT with Drew-AT, continuous variation method is employed, varying the ligand concentrations to generate the Job plot by fixing the total concentration of [QCy-DT+Drew-AT] at 2 μM. […] The binding constants of [QCy-DT+DNA] complexes are calculated from the fluorescence titration experiments using non-linear (single-binding mode) curve fitting analysis. […] Next, the fluorescence quantum yield of QCy-DT is estimated in the presence of AT- and GC-rich DNA duplexes (Table 3) as follows: […]

[2] = test system: (A-T)20; assay: Binding constant from fluorescence titration
Procedure: as §1

[3] = test system: Drew-AT; assay: Binding constant from fluorescence titration; details: non-linear single-binding mode curve fitting
Procedure: as §1

[4] = test system: DNA containing 5′-GAATTC-3′ core; assay: Fluorescence enhancement, local variations 5′-X(AATT)Y-3′; format: binding
Procedure: (§2) All the chemicals, reagents, single-stranded oligos (dA20, dT20, dG20, dC20), self-complementary oligos {d(ATAT)5, (D1)mix, Drew-AT, Calf-Thymus DNA (CT-DNA), (DM1, DM2, DM3, DM4, DM5, DM6 and DM7)}, RNA, were purchased from Sigma-Aldrich. ^1H and ^13C NMR spectra were recorded on a Bruker AV-400 MHz spectrometer with chemical shifts reported as parts per million (ppm) (in DMSO-d6, tetramethylsilane as an internal standard) at 20° C. UV-vis absorption and emission spectra were measured in quartz cuvettes of 1 cm path length. High resolution mass spectra (HRMS) were obtained on Agilent Technologies 6538 UHD Accurate-Mass Q-TOF LC/MS spectrometer. All biophysical studies (UV-vis, fluorescence and Cirular dichroism) are carried out at the concentration 0-5 μM of probe, volume=500 μL, temperature=25° C. and time of incubation=2 minutes. HeLa cells and MCF7 cells used in the biological studies are obtained from “Molecular reproduction, development and genetics lab, Indian institute of science, Bangalore, India”
(§3) Stock solutions of QCy-DT are prepared in double-distilled (dd) water in the order of 10^−3 M and stored at about −10° C. […]
(§4) The UV-vis absorption and emission spectra are recorded on Agilent Technologies Cary series UV-vis-NIR absorbance and Cary eclipse fluorescence spectrophotometers, respectively. […] Absorption is monitored at 260 nm with regular 5° C. intervals. Melting temperatures (Tm) of DNA samples are calculated from the first derivatives of the absorption vs. temperature curves (thermal denaturation or melting curves) obtained by monitoring at 260 nm.
(§5) To understand finer details of the interactions of QCy-DT with local variations around 5′-AATT-3′ sequence in the minor groove of DNA duplex, fluorescence studies are performed in the presence of DNA containing core hexanucleotide sequences such as 5′-X(AATT)Y-3′ (where X=A/T/G/C and Y is complementary base of X) (FIG. 5a). […] Remarkably, enormous fluorescence enhancement is observed in the presence of DNA with 5′-AAATTT-3′ core, which is ˜4-folds higher than the DNA with 5′-AATT-3′ core sequence alone. […]

[5] = test system: 5′-TAATTA-3′; assay: as above; format: binding; details: folds lesser than 5′-AATT-3′ sequence
Procedure: as §2, §3, §4, §5

[6] = test system: DNA containing 5′-CAATTG-3′ core; assay: as above; format: binding
Procedure: as §2, §3, §4, §5

[7] = test system: P. falciparum; assay: IC50 determination in malaria parasites; format: cell-based, Plasmodium falciparum; details: for IC50: Plasmodium falciparum
Procedure: P. falciparum strain 3D7 is cultured. Briefly, malaria parasites are cultured in human erythrocytes in T75 flasks with RPMI 1640 (Gibco) supplemented with 10 μg/mL gentamicin (Sigma), 50 μg/mL ampicillin, 0.2% NaHCO3 (Sigma), 0.5% albumax (Invitrogen) and Hypoxanthine (27 mg/L). The culture is maintained under standard conditions (37° C. in 90% nitrogen, 5% CO2, and 5% O2). For synchronization of the parasites, ring-staged parasites are treated with 5% sorbitol at 37° C. for about 5-10 min, followed by washing with pre-warmed incomplete medium twice, and placed back in complete medium. QCy-DT probe (resuspended in Mili-Q water) is added to parasites (25±2 hpi) at a final concentration of 0.5 μM and the parasites are incubated for 30 min at 37° C. Following treatment fluorescence imaging of the parasites is performed using Carl Zeiss AXIO Imager Z1 and the software used for image capturing was AxioVision Rel. 4.8. To determine the IC50 value of QCy-DT against P. falciparum, parasites are synchronized in ring stage (˜12±2 h) and parasitemia is maintained at ˜1%, followed by treatment with 0, 0.5, 1, 2 and 4 μM of QCy-DT at early trophozoite stage (˜20±2 h). After about 40 hours of the QCy-DT treatment, Geimsa stained slides are prepared, and parasitemia is counted. At least six homogenous microscopic fields are counted for each treatment, and each experiment is done in triplicates. The graphs are plotted for the percentage of parasitemia (at 0 time point and at 40 hours after incubation with QCy-DT) against QCy-DT concentration, with mean and standard error.

[8] = test system: (D1)mix; assay: Fluorescence quantum yield in presence of DNA; format: binding
Procedure: Cresyl violet perchlorate in ethanol (ϕ=0.54) is used as the standard for the fluorescence quantum yield calculation using the absorption of the test sample. The emission spectral area is obtained in the 550-800 nm regions. Dilute solutions (10^−6 M) are used to minimize reabsorption effects of the dyes. Quantum yields are determined using the following equation, ϕs=ϕr(Fs/Fr)×(Ar/As)×(ns^2/nr^2)
Where, ϕr and ϕs are the quantum yield of reference and sample respectively, Fr and Fs are the integrated intensities (areas) of standard and sample spectra, nr and ns are the refractive indices of the reference and sample solution, Ar and As are the absorbance intensities of reference and sample respectively.

C[n+]1c(/C=C/c2ccc(O)c(/C=C/c3sc4ccccc4[n+]3C)c2)sc2ccccc21 [QCy-DT, quinone cyanine-dithiazole]
binding affinity Ka [1]: 430000 M⁻¹
binding affinity Ka ([2]; non-linear single-binding mode curve fitting): 2.9e+06 M⁻¹
binding affinity for (A-T)20 higher than for Drew-AT ([2]; ratio of Ka): 2 fold
binding affinity Ka [3]: 1.5e+06 M⁻¹
fluorescence enhancement [4]: very weak fluorescence enhancement
fluorescence enhancement with T at X in 5′-X(AATT)Y-3′, lesser than 5′-AATT-3′ [5]: ~1.5 fold
fluorescence enhancement [6]: very weak fluorescence enhancement
parasite stage progression ([7]; 8 μM): arrested in the trophozoite stage
IC50 ([7]; against malarial parasites, as printed in the description, read-out: inhibitory concentration (IC50)): < 4 µM
IC50 ([7]; early trophozoite stage, 40 h treatment, parasitemia count, read-out: IC50): < 4 µM
Quantum Yield (ΦF) [8]: 0.08
